Data as given in patent publication US8957022B2, “Multimeric tie 2 agonists and uses thereof in stimulating angiogenesis” (Sunnybrook Health Sciences Centre, priority 2006, dated 2015).

Key:
Tie 2 [1] = target: T1, Tie 2 (Homo sapiens, UniProt Q02763); test: In vitro pull down assay of Tie 2 from EaHy926 cell lysate; format: binding; set-up: a cell lysate of EaHy926 endothelial cells (which express high levels of Tie 2) was prepared; endogenous in cells; host or cells: EaHy926 endothelial cells
T1 sequence (Q02763 23-1124): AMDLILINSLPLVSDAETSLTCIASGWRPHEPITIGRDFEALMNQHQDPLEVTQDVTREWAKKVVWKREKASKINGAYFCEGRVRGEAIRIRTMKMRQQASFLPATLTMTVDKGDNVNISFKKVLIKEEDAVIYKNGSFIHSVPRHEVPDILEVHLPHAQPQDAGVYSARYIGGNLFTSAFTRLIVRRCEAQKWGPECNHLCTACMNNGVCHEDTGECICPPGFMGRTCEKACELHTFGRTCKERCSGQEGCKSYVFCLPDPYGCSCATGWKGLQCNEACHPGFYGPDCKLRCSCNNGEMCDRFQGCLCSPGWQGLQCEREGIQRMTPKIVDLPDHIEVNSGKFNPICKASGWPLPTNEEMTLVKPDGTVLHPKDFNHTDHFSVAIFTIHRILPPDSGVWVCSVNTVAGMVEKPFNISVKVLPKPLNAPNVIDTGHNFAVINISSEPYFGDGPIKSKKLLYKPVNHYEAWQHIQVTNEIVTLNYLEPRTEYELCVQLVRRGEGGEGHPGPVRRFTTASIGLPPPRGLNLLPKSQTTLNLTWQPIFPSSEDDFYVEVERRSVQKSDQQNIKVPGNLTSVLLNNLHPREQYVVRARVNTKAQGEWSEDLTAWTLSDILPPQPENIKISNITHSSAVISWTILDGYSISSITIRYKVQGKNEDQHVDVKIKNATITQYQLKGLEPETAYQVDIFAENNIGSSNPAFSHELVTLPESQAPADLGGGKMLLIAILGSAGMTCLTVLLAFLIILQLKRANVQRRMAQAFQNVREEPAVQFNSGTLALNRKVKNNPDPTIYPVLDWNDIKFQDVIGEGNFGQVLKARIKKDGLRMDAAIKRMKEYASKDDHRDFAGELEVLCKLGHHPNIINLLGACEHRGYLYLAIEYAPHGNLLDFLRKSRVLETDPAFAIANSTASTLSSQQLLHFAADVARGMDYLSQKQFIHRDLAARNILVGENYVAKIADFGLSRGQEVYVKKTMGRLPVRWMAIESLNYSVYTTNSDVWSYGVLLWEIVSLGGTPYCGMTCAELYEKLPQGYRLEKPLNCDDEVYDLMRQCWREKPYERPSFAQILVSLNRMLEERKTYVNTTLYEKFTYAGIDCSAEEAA
Method: In this example, the ability of Vasculotide to bind the Tie 2 receptor, despite the engineered modifications, was tested using an in vitro pull down assay. In the pull down assay, a cell lysate of EaHy926 endothelial cells (which express high levels of Tie 2) was prepared in Phospho Lipase Cγ lysis buffer (50 mM Hepes buffer pH 7.5, 150 mM NaCl, 10% glycerol, 1% Triton X-100, 1.5 mM MgCl2, 1.0 mM EGTA, 10 mM NaPPi, […], 2 mM Na3VO4, 1× aprotinin, 1× leupeptin and 1×PMSF). The whole cell lysate was mixed with either unclustered biotinylated Vasculotide or biotinylated irrelevant peptide. The biotinylated peptides then were isolated with avidin agarose and subsequently tested for their ability to precipitate Tie 2 via standard immunoblot analysis using anti-Tie 2 antibody.

Tie 2 [2] = target: T1, Tie 2; test: Tie 2 activation (pY992 Tie 2 immunoblot) in HUVEC; format: cell-based; set-up: downstream signalling pathways in human umbilical vein endothelial cells (HUVEC) (Cambrex, N.J.); host or cells: HUVEC, passage 3-9
Method: Having established that Vasculotide was able to bind Tie 2 (see Example 2), the ability of Vasculotide, when clustered with avidin in a 4:1 ratio (Vasculotide:avidin), to activate the Tie 2 receptor was tested by examining several well established downstream signalling pathways in human umbilical vein endothelial cells (HUVEC) (Cambrex, N.J.). Such signalling pathways are described in, for example, Kim, I. et al. (2000) Circ. Res. 9:952-959; Fujikawa, K. et al. (1999) Exp. Cell. Res. 2:663-672; Babaei, S. et al. (2003) Am. J. Pathol. 6:1927-1936.
HUVEC were grown on 6-well or 10 cm plates (Nunc) coated with gelatin (Sigma). HUVEC were cultured in F12 growth medium containing 10% fetal bovine serum (FBS), 0.1 mg/ml heparin sulphate, 1× penicillin, 1× streptomycin, 1× glutamine, VEGF 10 ng/ml, EGF 10 ng/ml, bFGF 5 ng/ml. All HUVEC were used between passage 3-9.
HUVEC were stimulated with one of either Ang 1 (R&D Systems), Vasculotide, avidin or clustered Vasculotide (preclustered with a 4:1 molar ratio of peptide:avidin in PBS for 2 hours at 4° C.) at various doses. Stimulations with Vasculotide were performed in full serum containing growth media for 15 minutes unless otherwise indicated. Cell lysate preparations and immunoblot analysis were performed by standard methods. Antibodies used for immunoblotting (in this and/or subsequent Examples) were monoclonal anti Tie 2 (Pharminogen), polyclonal anti pY992 Tie 2, (Cell Signaling Technology), polyclonal anti MAPK (Cell Signaling Technology), monoclonal anti phospho MAPK (Cell Signaling Technology), polyclonal anti AKT (Cell Signaling Technology), polyclonal anti pS473 AKT (Cell Signaling Technology), monoclonal anti pS1177 eNOS (BD Biosciences), polyclonal anti pY397 FAK (Biosource), polyclonal anti FAK (Santa Cruz), polyclonal anti smooth muscle actin-Cy3 direct conjugate (Dako), polyclonal anti PECAM (Pharminogen) and polyclonal anti smooth muscle actin (Sigma).
To examine Tie 2 activation kinetics, HUVEC were stimulated with native Ang 1 or clustered Vasculotide for various times. Stimulation was performed in 10% FBS. […] Overall, activation of the receptor by either Ang 1 or clustered Vasculotide followed a very similar time course with phosphorylation returning to almost basal levels sometime after 2 hours.

HUVEC [3] = test: Serum withdrawal-induced cell death, Cell Death ELISA; format: cell-based, human; details: F12 plus 0.1% FBS, 16 hours; clustered Vasculotide at 500 pM (p=0.002) vs non-treated cells
Method: Based on the fact that clustered Vasculotide strongly activates the anti apoptotic protein AKT (see Example 3), the ability of Vasculotide to protect ECs from serum withdrawal-induced death was examined. To do so, HUVEC were maintained in F12 media plus 0.1% FBS for 16 hours in the presence of various concentrations of unclustered or clustered Vasculotide, followed by analysis of cell apoptosis via cell death ELISA. Analysis of apoptosis was performed using Cell Death ELISA Plus (Roche) according to manufacturers' specifications. The results are shown in FIG. 2A, in which values were normalized to basal levels of cell death for HUVECs maintained in full 10% FBS, growth factor supplemented F12 media. The results shown represent the mean of three replicates plus or minus 1 SD. Student's T-test was used for statistical analysis with P value indicated.

[4] = test system: Cos 1 fibroblast cells and C166 EC's (phenotypically null for Tie 2); test: MAPK and AKT phosphorylation in Ad-EGFP infected cells null for Tie 2; format: cell-based; details: EGFP infected Cos 1 and C166 cells
Method: To more formally address the specificity of clustered Vasculotide for the Tie 2 receptor, reconstitution experiments were performed in Cos 1 fibroblast cells and C166 EC's, both of which are phenotypically null for Tie 2. Cos 1 and C166 cells (ATCC) were maintained on 10-cm-diameter plates (Nunc) in Dulbecco's modified Eagle's medium (DMEM) supplemented with 10% (FBS), 1× penicillin, 1× streptomycin, and 200 mM L-glutamine (all Gibco BRL) in a 5% CO2 incubator at 37° C. Cos1 or C166 cells were infected (MOI 30) overnight with adenoviruses encoding one of either enhanced green fluorescent protein (EGFP) or Tie 2. Infection efficiency was confirmed by epifluorescence (EGFP), or by immunoblot (Tie 2).
Cells infected with recombinant adenovirus encoding EGFP or Tie 2 were either left unstimulated or stimulated with Vasculotide, clustered Vasculotide or avidin for 16 hours, after which MTS reagent was applied to all samples for 4 hours. Absorbance at 492 was measured using a multiwell plate reader (Power Wave X340, Biotek Instruments Inc). To broadly examine the potential that clustered Vasculotide was activating Tie 2-independent downstream signalling pathways, the activation of MAPK and AKT in the EGFP infected cells was examined. […] This fact precluded us from stimulating these cells any further with Vasculotide or clustered Vasculotide.

HUVEC [5] = test: Modified Boyden chamber migration assay; format: cell-based, human; details: for Chemotactic cell migration versus no treatment: 4 hours, clustered Vasculotide 2 nM and 10 nM
Method: To test if Vasculotide, like Ang 1, was capable of promoting these processes, the effect of Vasculotide on EC migration was tested using a modified Boyden chamber assay. HUVEC were seeded at a density of 8.4×10^4 cells in 500 μl of F12 growth media plus 0.1% FBS in the upper chamber of an 8 μm pore size modified Boyden chamber (Falcon). 500 μl of F12 media plus 0.1% FBS plus various growth factors (Ang 1 (R& D Systems), unclustered or clustered Vasculotide, VEGF (R&D Systems) or clustered Vasculotide in combination with VEGF) or controls were placed in the bottom chamber. Cells were allowed to migrate for 4 hours in a 37° C., 5% CO2 incubator. Nonmigrating cells were scraped off, and filters were fixed in 100% methanol for 5 minutes, stained with Harris' Hematoxylin (BDH) for 10 minutes and washed twice with tap water for 3 minutes each. Filters were then mounted using Aquapolymount mounting medium. Cells that had migrated more than 50% of the way through the pore were scored as positive for migration.
Student's t test was used to test the statistical significance with a 95% confidence interval. Stimulations were performed in triplicate and migrating cells in 6 microscopic fields per replicate were counted.

Row | Substance | Competition for available Tie 2 in the pull down (Tie 2 [1]; ten fold excess, preclustered with soluble avidin) | Ability to activate Tie 2 phosphorylation, time course, versus Ang 1 (400 ng/ml) (Tie 2 [2]; 2 nM, 10% FBS) | Tie 2 receptor activation at high concentration (Tie 2 [2]; 50 nM) | Optimal concentration for Tie 2 activation (pY992 Tie 2) (Tie 2 [2]; 15 minutes) | Apoptosis / survival after serum withdrawal (HUVEC [3]) | Phosphorylation of MAPK or AKT above non-stimulated samples [4] | Chemotactic cell migration versus no treatment (HUVEC [5]) | Migration compared with VEGF or Ang 1 (HUVEC [5]; VEGF 100 ng/ml, Ang 1 500 ng/ml (FIG. 2B legend)) | Precipitation of Tie 2 (avidin agarose pull down, anti-Tie 2 immunoblot) (Tie 2 [1]; EaHy926 whole cell lysate, unclustered biotinylated peptide) | Tie 2 phosphorylation without preclustering (Tie 2 [2]; avidin alone and unclustered Vasculotide)
1 | clustered Vasculotide: Vasculotide clustered with avidin in a 4:1 ratio, an obligate tetrameric compound | able to abolish this interaction | compared favorably to Ang 1 | not capable of activating Tie 2 receptor activity | 5-10 nM | statistically significant decrease in apoptosis | Neither Vasculotide nor clustered Vasculotide significantly induced phosphorylation of MAPK or AKT | significant increases in chemotactic cell migration | not significantly different than that seen in samples treated with VEGF or Ang 1 | – | –
2 | Vasculotide: biotinylated T7 peptide-PEG: Cys-His-His-His-Arg-His-Ser-Phe (SEQ ID NO: 2) conjugated to EZ-link-PEO-maleimide-biotin | – | – | – | – | no effect on survival | Neither Vasculotide nor clustered Vasculotide significantly induced phosphorylation of MAPK or AKT | did not promote migration above that seen in the untreated sample | – | able to precipitate Tie 2 | only when preclustered with avidin was Vasculotide able to stimulate Tie 2 phosphorylation
